Test: RP, Waters ACQUITY UPLC HSS T3, 100 × 2.1 mm, 1.8 µm, 30 °C, 0.4 mL/min, estimated dead time 0.55 min; A: water + 0.1% formic acid, pH 3; B: acetonitrile + 0.1% formic acid, pH 3; gradient (min/%B) 0/0 2/0 15/100 22/100 22.1/0 26/0
Details: stereoisomer not certain

| SMILES | LC retention time |
| --- | --- |
| CN1CCCCC1C(=O)O (stereo not drawn) [1-Methylpiperidine-2-carboxylic acid] | 1.1 min |
| Cn1c(=O)[nH]c2nc[nH]c2c1=O [1-Methylxanthine] | 6.63 min |
| O=Cc1ccc[nH]1 [1H-pyrrole-2-carboaldehyde] | 7.8 min |
| O=C(O)CCCCc1ccc(O)c(O)c1 [5-(3,4 dihydroxyphenyl)valeric acid] | 9.86 min |
| COc1c2ccoc2cc2oc(=O)ccc12 [Bergapten] | 12.6 min |
| COc1cc(CNC(=O)CCCCC=CC(C)C)ccc1O [Capsaicin] | 13.7 min |
| CC(C)CC1NC(=O)C2CCCN2C1=O (stereo not drawn) [Cyclo(leucyl-prolyl)] | 9.2 min |
| O=C(C=CC=Cc1ccc2c(c1)OCO2)N1CCCCC1 [Piperine] | 13.7 min |
| CC1CCC2(NC1)OC1CC3C4CCC5CC(O)CCC5(C)C4CCC3(C)C1C2C (stereo not drawn) [Tomatidine] | 11.8 min |

Results, then the compound that gave them:

| LC retention time | SMILES |
| --- | --- |
| 10.9 min | CCCC(C(=O)O)c1cccc(O)c1 (stereo not drawn) [3-Hydroxyphenylvaleric acid] |
| 1.34 min | OCC1OC(Oc2ccc(O)cc2)C(O)C(O)C1O (stereo not drawn) [Arbutin] |
| 17.4 min | CC(C)=CCCC(C)=CCOc1c2ccoc2cc2oc(=O)ccc12 [Bergamottin] |
| 13.5 min | COc1ccc(-c2coc3cc(O)cc(O)c3c2=O)cc1 [Biochanin A] |
| 11.8 min | COc1ccc(-c2cc(=O)c3c(O)cc(O)cc3o2)cc1O [Diosmetin] |
| 12.4 min | COc1ccc(-c2coc3cc(O)ccc3c2=O)cc1 [Formononetin] |
| 11.7 min | COc1cc(C2CC(=O)c3c(O)cc(O)cc3O2)ccc1O (stereo not drawn) [Homoeriodictyol] |
| 13.4 min | COc1ccc(-c2oc3cc(O)cc(O)c3c(=O)c2O)cc1 [Kaempferide] |
| 13.2 min | COc1ccc(-c2cc(=O)c3c(OC)c(OC)c(OC)c(OC)c3o2)cc1OC [Nobiletin] |
| 8.35 min | Oc1cc(O)c2c(c1)OC(c1ccc(O)c(O)c1)C(O)C2c1c(O)cc(O)c2c1OC(c1ccc(O)c(O)c1)C(O)C2 (stereo not drawn) [Procyanidin B2] |
| 12.5 min | COc1cc(O)c2c(=O)c(O)c(-c3ccc(O)c(O)c3)oc2c1 [Rhamnetin] |
| 12.6 min | COc1ccc(-c2cc(=O)c3c(OC)c(OC)c(OC)cc3o2)cc1OC [Sinensetin] |
| 9.12 min | O=c1cc(-c2ccc(O)cc2)oc2c(C3OC(CO)C(O)C(O)C3O)c(O)cc(O)c12 (stereo not drawn) [Vitexin] |

Test: RP, Agilent ZORBAX Eclipse XDB-C18, 100 × 2.1 mm, 1.8 µm, 50 °C, 0.4 mL/min, estimated dead time 0.55 min; A: water + 0.1% formic acid, pH 3; B: methanol + 0.1% formic acid, pH 3; gradient (min/%B) 0/2 10/100 14.5/100 14.51/2 16.5/2
Details: stereoisomer not certain

| LC retention time | SMILES |
| --- | --- |
| 2.68 min | COc1c(O)cccc1O [2-Methoxyresorcinol] |
| 2.21 min | O=C(O)Cc1cc(O)cc(O)c1 [3,5-Dihydroxyphenylacetic acid] |
| 4.8 min | O=C([O-])CCc1ccccc1O [3-(2-Hydroxyphenyl)propionic acid] |
| 2.63 min | O=C(O)CCCCC(=O)O [Adipic acid] |
| 4.75 min | O=C(O)CNC(=O)C=Cc1ccccc1 [Cinnamoylglycine] |
| 11.8 min | C=C1CCC(O)CC1=CC=C1CCCC2(C)C1CCC2C(C)C=CC(C)C(C)C (stereo not drawn) [Ergocalciferol] |
| 1.82 min | O=C(O)Cc1cc(O)ccc1O [Homogentisic acid] |
| 3.01 min | O=C([O-])C(O)c1ccccc1 (stereo not drawn) [Mandelic acid] |
| 13.8 min | CC1=C(/C=C/C(C)=C/C=C/C(C)=C/C=C/C=C(C)/C=C/C=C(C)/C=C/C2=C(C)CCCC2(C)C)C(C)(C)CCC1 [beta-carotene] |

| SMILES | LC retention time |
| --- | --- |
| NCC(O)c1ccccc1 (stereo not drawn) [2-Amino-1-phenylethanol] | 1.42 min |
| CC1NCCc2cc(O)c(O)cc21 (stereo not drawn) [Salsolinol] | 1.57 min |

— the RepoRT retention time repository (doi:10.1016/j.foodchem.2021.129757)
